What was measured:
[1] = Hydrolysis test carried out in the dark; format: physicochemical
Excerpt: From the hydrolysis test carried out in the dark, MNB and MPB appear to be readily degradable at a pH compatible with environmental conditions.

[2] = Photo-degradability under daylight and UV; format: physicochemical; details: 10 ppm in drinking water (pH 6,5-7,5)
Procedure: Similarly, the same behaviour is confirmed when evaluating the photo-degradability under daylight and UV (the irradiation test is carried out on a solution of 10 ppm in drinking water (pH 6,5-7,5)).

[3] = Biodegradability OECD 301 A (92/69/EEC C4-A); details: 7 days after the beginning of the test
Procedure: In fact, based on data available with respect to the most similar compounds to the menadione derivatives disclosed herein, one would expect a degradability in the range of 0% (percentage calculated based on the initial mass expressed in mg/l) typical of menadione (2-methyl-1,4-naphthalenedione) and 17% (assessed after 28 days) typical of menadione sodium bisulphite (which calculation was performed in accordance with the guidelines OECD301 A attached to directive EEC 92/69/EEC C4-A).
Finally biodegradability was also evaluated according to standard 92/69/EEC C4-A. From the data, both MNB and MPB result to have a remarkably better biodegradability than 2-methyl-1,4-naphthalenedione and particularly than MSB.

[4] = Excerpt: As reminded often, the water solubility is an essential feature for the candidate biocide to be used successfully in the biological control of water.

Structure (SMILES) | ½ LIFE (hydrolysis) ([1]; pH 6, 8, in the dark) | ½ LIFE (hydrolysis) ([1]; pH 9, in the dark) | Light exp. Tot Degr. [2] | Light exp. ½ life [2] | degradability relative to that of MSB [3] | Sol. in H2O [4]
O=C1C=CC(=O)c2c(O)cccc21 [Juglone, 5-hydroxy-1,4-naphthalenedione, reference compound] | >288 h | 15 h | 48 h | – | – | –
CC1(S(=O)(=O)O)CC(=O)c2ccccc2C1=O.Cc1cc(C)[nH]c(=O)n1 (centres unmarked) [MPB, menadione dimethylpyrimidinole bisulphite] | 48 h | <3 h | 48 h | 10 h | eight | 10 gr/l
CC1=CC(=O)c2ccccc2C1=O [Menadione, 2-methyl-1,4-naphthalenedione, reference compound] | 1500 h | 550 h | >5000 h | 1500 h | – | ins.
